Data published in patent publication US6822097B1, “Compounds and methods of uses” (Amgen, Inc., priority 2002, dated 2004).

melting point [°C] | SMILES
> 300 | CCNC(=O)c1ccc2cc(-c3csc(N(C)S(=O)(=O)c4ccccc4)n3)c(=O)[nH]c2c1 [Example 8766, 3-[2-(Benzenesulfonyl-methyl-amino)-thiazol-4-yl]-2-oxo-1,2-dihydro-quinoline-7-carboxylic acid ethylamide]
> 300 | O=c1[nH]c2ccccc2cc1-c1csc(NS(=O)(=O)c2ccc(Cl)cc2)n1 [Example 8789, 4-Chloro-N-(4-(2-oxo-1,2-dihydro-3-quinolinyl)-1,3-thiazol-2-yl)benzenesulfonamide]

Second part, the molecule before the results:

SMILES | melting point [°C]
CN1CCN(C(=O)c2ccc3cc(-c4csc(N(C)S(=O)(=O)c5ccccc5)n4)c(=O)[nH]c3c2)CC1 [Example 8765, N-Methyl-N-{4-[7-(4-methyl-piperazine-1-carbonyl)-2-oxo-1,2-dihydro-quinolin-3-yl]-thiazol-2-yl}-benzenesulfonamide] | 242 to 247
CCN(CC)C(=O)c1ccc2cc(-c3csc(N(C)S(=O)(=O)c4ccccc4)n3)c(=O)[nH]c2c1 [Example 8767, N,N-Diethyl-3-(2-(methyl(phenylsulfonyl)amino)-1,3-thiazol-4-yl)-2-oxo-1,2-dihydro-7-quinolinecarboxamide] | 200 to 202
CN(C)CCN(C)C(=O)c1ccc2cc(-c3csc(N(C)S(=O)(=O)c4ccccc4)n3)c(=O)[nH]c2c1 [Example 8788, 3-[2-(Benzenesulfonyl-methyl-amino)-thiazol-4-yl]-2-oxo-1,2-dihydro-quinoline-7-carboxylic acid (2-dimethylamino-ethyl)-methyl-amide] | 144 to 148
